Assay results: the METLIN SMRT retention time set (Domingo-Almenara et al. 2019)

Experiment: gradient 5% acetonitrile 3 min, to 50% in 2 min, to 85% in 15 min, held 3 min, 100 µL/min
Conditions: column: Zorbax Extend-C18 2.1 x 50 mm; eluents: water / acetonitrile, 0.1% formic acid
Method in brief: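 Standards, all pure, were combined into mixtures of ~100 molecules and run at 100 μL/min on a Zorbax Extend-C18 column (2.1 × 50 mm, 1.8 μm) with water and acetonitrile, each containing 0.1% formic acid. A coupled quadrupole time-of-flight mass spectrometer operated in positive and negative ionization mode. Retention time values come from computationally picked adduct peaks, each inspected manually.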

RP-LC retention time [s]	SMILES
795	COc1ncc(C(=O)Nc2ccc(F)c(F)c2)c(C)n1
866	Cc1ccc(OCC(=O)Nc2ccc3c(c2)Sc2ncccc2C(=O)N3C)cc1
1210	CCOC(=O)C1CCN(S(=O)(=O)c2cccc(-c3nc(-c4ccccc4)no3)c2)CC1
945	O=C(CC1CCN(S(=O)(=O)c2ccc(Cl)s2)CC1)NCCc1c[nH]c2ccccc12
735	COc1ccc(S(=O)(=O)C(CNC(=O)c2ccco2)c2cccs2)cc1 (configuration not stated)
910	CCN1C(=O)COc2ccc(-c3csc(NC(=O)C(C)(C)C)n3)cc21
774	COCCNC(=O)C1CCN(c2nc3ccc(-c4cccs4)nc3s2)CC1
613	COc1ccc(C2C(C(=O)c3cccs3)=C(O)C(=O)N2CCCN2CCOCC2)cc1OC (configuration not stated)
718	CN1CCCn2nc(C3CCN(C(=O)c4cccc(C(F)(F)F)c4)CC3)cc2C1=O
687	Cc1nc2cc(N3CCCC(C(=O)NCc4cccs4)C3)cnc2nc1C (configuration not stated)
744	CN(CC(=O)N1CCN(c2ccccc2)CC1)S(=O)(=O)c1c[nH]c(C(=O)N2CCCC2)c1
635	O=C(/C=C/c1cccnc1)/C=C/c1cccnc1
868	CC(=O)Oc1ccccc1C(=O)N1CCCc2ccccc21
702	O=C1c2ccccc2C(O)(c2ccccc2)N1c1ccncc1 (configuration not stated)

Second part, the compound before the results:

SMILES	RP-LC retention time [s]
COCCn1cc(C(=O)NCC(C)C)c2nn(-c3ccccc3)c(=O)c-2c1	851
O=C(O)CC1(CC(=O)Nc2nc(-c3cccc4ccccc34)cs2)CCCC1	1040
COCc1noc([C@@H]2CC(F)(F)CN2C(=O)c2cn(C)cn2)n1	610
Cc1ccc(S(=O)(=O)N2CCCCC2CCNC(=O)c2cccn(C)c2=O)cc1 (configuration not stated)	760
Cc1ccc(S(=O)(=O)CCc2noc(C(=O)N3CCC4(CC3)OCCO4)n2)cc1	816
O=S(=O)(c1cccc2cccnc12)N1CCCn2nc(-c3ccncc3)cc2C1	610
CCN1C(=O)COc2ccc(-c3csc(NC(=O)c4cc(OC)cc(OC)c4)n3)cc21	1050
Cc1nn(C(C)C(=O)N2CCCCCC2)c(=O)c2c(-n3cccc3)n(-c3ccccc3)nc12 (configuration not stated)	1040
CCOc1ccccc1N1CCN(C(=O)CN2CCN(Cc3ccc(F)cc3)C2=O)CC1	833
CCOC(=O)c1cc(S(=O)(=O)N2CCCC2C(=O)NCc2cccnc2)cn1C (configuration not stated)	598
CC1CCCCN1C(=O)Cn1c(=O)n(C2CCCCC2)c(=O)c2ccccc21 (configuration not stated)	1010
O=C(O)C(Cc1c[nH]c2ccccc12)N1C(=O)c2ccccc2C1=O (configuration not stated)	858
Cn1cc(C2=CCN(S(=O)(=O)c3cccc(C#N)c3)CC2)c2cccnc21	904
COc1ccc2c(c1)C1(CCN(C(=O)Cc3ccccc3Cl)C1)C(=O)N2 (configuration not stated)	773
CCn1cc(S(=O)(=O)N2CCC(Cc3nc(-c4ccncc4)n[nH]3)C2)cn1 (configuration not stated)	578
CSc1ccccc1CN1CCC(CNC(=O)c2ccccc2Cl)CC1	722
O=C(Nc1c(-c2ccccc2)nc2ccccn12)c1ccco1	598
c1ccc(-n2ncc3c(Nc4ccc5c(c4)OCO5)nc(N4CCCC4)nc32)cc1	1350
CCc1nnc(-c2ccc3ccn(CC(=O)NCCc4ccc(OC)c(OC)c4)c3c2)o1	760
CCn1ccc2cc(S(=O)(=O)N3CCCC(C(=O)NCCC(C)C)C3)ccc21 (configuration not stated)	980
Cc1cc(NC(=O)N2CCC(c3cc(N)on3)CC2)ccc1Br	790
O=C(NCC1CC1)c1c(O)c2cccnc2n(Cc2ccccc2)c1=O	1310
Cc1ccc(OCC(O)CN2CCN(c3ccccc3)CC2)cc1C (configuration not stated)	726
